Experimental data reported in ChEMBL document CHEMBL3826918, “Recent developments of C-4 substituted coumarin derivatives as anticancer agents” (Eur J Med Chem, 2016).

Tests used:
MRC5 = experiment: Cytotoxicity against human MRC5 cells assessed as reduction in cell viability measured after 48 hrs by MTT assay; assay type: functional, cell-based; conditions: MRC5, 48 h
A-375 = experiment: Cytotoxicity against human A375 cells assessed as reduction in cell viability measured after 48 hrs by MTT assay; assay type: functional, cell-based; conditions: A-375, 48 h
[1] = Inhibition of TNF-alpha induced NF-kappaB transcriptional activity in HEK293 cells expressing NF-kappaB-Luc measured after 48 hrs by luciferase assay; assay type: cell-based; conditions: Homo sapiens, HEK293, 48 h
Steryl-sulfatase [2] = target: T1, Steryl-sulfatase (Homo sapiens, UniProt P08842); experiment: Inhibition of sulphatase in human MCF7 cells assessed as inhibition of E1-STS activity; assay type: cell-based
T1 sequence (P08842 whole entry): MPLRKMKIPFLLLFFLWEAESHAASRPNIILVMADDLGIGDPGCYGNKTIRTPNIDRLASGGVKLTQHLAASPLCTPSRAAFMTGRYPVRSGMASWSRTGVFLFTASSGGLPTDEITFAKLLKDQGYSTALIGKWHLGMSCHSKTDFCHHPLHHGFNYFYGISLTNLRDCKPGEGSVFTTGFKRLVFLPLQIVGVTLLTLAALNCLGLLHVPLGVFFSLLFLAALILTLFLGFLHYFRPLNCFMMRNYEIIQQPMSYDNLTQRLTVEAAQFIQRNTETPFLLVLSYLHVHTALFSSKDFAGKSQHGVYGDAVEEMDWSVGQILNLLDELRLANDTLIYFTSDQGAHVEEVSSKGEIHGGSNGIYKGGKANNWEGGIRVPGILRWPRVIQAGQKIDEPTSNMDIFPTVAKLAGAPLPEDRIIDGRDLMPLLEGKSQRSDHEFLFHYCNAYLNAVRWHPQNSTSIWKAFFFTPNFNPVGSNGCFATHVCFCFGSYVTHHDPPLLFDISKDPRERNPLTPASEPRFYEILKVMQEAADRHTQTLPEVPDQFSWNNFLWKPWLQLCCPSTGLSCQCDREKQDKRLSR

[3] = Octanol-water partition coefficient, log P of the compound; assay type: physicochemical
MCF7 [4] = experiment: Cytotoxicity against human MCF7 cells assessed as reduction in cell viability by MTT assay; assay type: functional, cell-based
MDA-MB-231 [5] = experiment: Cytotoxicity against human MDA-MB-231 cells assessed as reduction in cell viability by MTT assay; assay type: functional, cell-based
[6] = Cytotoxicity against human hTERT-HME1 cells assessed as reduction in cell viability by MTT assay; assay type: functional, cell-based
Aromatase [7] = target: T2, Aromatase (Homo sapiens, UniProt P11511); assay type: cell-based, MCF7
T2 sequence (P11511 whole entry): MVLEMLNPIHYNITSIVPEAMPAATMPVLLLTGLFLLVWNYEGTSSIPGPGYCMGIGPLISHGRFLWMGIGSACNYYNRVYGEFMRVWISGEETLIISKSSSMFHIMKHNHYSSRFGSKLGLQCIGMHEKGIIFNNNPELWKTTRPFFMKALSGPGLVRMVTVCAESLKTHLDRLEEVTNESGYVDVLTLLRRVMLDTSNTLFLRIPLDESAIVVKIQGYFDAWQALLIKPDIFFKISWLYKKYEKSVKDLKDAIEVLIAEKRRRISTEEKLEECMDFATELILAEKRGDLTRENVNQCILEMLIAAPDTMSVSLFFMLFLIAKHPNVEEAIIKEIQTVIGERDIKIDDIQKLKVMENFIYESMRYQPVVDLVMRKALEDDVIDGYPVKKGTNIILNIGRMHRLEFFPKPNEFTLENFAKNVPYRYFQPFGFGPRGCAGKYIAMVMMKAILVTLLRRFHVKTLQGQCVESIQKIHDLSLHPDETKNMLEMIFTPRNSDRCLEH
Description: Inhibition of aromatase in human MCF7 cells using [1beta-3H]androstenedione as substrate measured after 1 hr by liquid scintillation counting method

Steryl-sulfatase [8] = target: T1, Steryl-sulfatase; experiment: Inhibition of placental sulphatase (unknown origin)
Aromatase [9] = target: T2, Aromatase
Description: Inhibition of aromatase (unknown origin) preincubated for 10 mins in presence of NADPH generating system followed by addition of dibenzylfluorescein as substrate measured after 30 mins by fluorescence quenching assay

Casein kinase II = Casein kinase II (Homo sapiens, UniProt P19784+P67870+P68400); experiment: Inhibition of recombinant human N-terminal 6His-tagged CK2 expressed in baculovirus infected Sf21 cells in presence of ATP by radiometric assay
A549 = experiment: Antiproliferative activity against human A549 cells over-expressing CK2 assessed as growth inhibition; assay type: functional, cell-based
[10] = Antiproliferative activity against human PC3 cells; assay type: functional, cell-based; conditions: PC-3
MCF7 [11] = experiment: cells; conditions: Homo sapiens
Description: Antiproliferative activity against human MCF7 cells

MDA-MB-231 [12] = experiment: cells; conditions: Homo sapiens
Description: Antiproliferative activity against human MDA-MB-231 cells

Sequence of Casein kinase II (P67870 whole entry): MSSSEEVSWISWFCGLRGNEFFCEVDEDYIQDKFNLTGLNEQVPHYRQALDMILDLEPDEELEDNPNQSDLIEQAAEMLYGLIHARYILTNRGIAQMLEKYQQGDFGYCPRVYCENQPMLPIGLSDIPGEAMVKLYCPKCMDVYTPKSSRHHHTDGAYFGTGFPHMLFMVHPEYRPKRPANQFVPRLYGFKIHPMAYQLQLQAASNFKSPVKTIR
Sequence of Casein kinase II (P68400 whole entry): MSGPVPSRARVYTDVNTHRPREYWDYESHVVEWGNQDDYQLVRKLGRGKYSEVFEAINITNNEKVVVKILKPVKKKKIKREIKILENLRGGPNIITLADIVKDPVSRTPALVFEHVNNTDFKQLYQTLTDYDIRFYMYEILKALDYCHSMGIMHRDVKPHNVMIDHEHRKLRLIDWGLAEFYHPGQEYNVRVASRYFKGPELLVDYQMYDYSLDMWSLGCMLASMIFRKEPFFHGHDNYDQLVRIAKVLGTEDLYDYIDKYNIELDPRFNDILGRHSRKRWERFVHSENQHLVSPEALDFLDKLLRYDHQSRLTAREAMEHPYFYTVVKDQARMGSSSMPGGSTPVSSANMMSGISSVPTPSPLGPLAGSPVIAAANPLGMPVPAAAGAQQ
Sequence of Casein kinase II (P19784 whole entry): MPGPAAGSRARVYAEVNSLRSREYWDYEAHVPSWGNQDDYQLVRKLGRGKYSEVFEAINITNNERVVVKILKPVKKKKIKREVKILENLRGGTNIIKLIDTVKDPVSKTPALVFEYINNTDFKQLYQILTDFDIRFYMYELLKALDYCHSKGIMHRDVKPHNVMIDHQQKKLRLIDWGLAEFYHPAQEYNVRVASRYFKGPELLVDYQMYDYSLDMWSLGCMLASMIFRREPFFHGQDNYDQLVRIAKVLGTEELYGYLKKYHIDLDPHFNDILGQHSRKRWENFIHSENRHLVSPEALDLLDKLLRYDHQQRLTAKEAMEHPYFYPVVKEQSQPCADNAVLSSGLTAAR

O=c1cc(-c2ccccc2)c2ccc(O)c(O)c2o1
IC50 (MRC5): 47 µM | IC50 (A-375): 39 µM

COc1cc(C2CC(=O)Oc3cc4c(cc32)OCO4)cc(OC)c1OC (centres undefined)
IC50 [1]: 0.11 µM

Cc1cc(=O)oc2ccc(OS(N)(=O)=O)cc12
IC50 (Steryl-sulfatase [2]): 0.38 µM

COc1cc(C2CC(=O)Oc3cc4c(cc32)OCO4)cc(OC)c1O (centres undefined)
logP [3]: 2.17

COc1ccc2c(CSC3=CC(=O)c4ccccc4C3=O)cc(=O)oc2c1
IC50 (MCF7 [4]): 11.2 µM | IC50 (MDA-MB-231 [5]): 9.5 µM | IC50 [6]: 18.1 µM

COc1ccc2c(Cc3ccccc3)c(-c3ccc(Cl)cc3)c(=O)oc2c1
IC50 (Aromatase [7]): 0.08 µM

NS(=O)(=O)Oc1ccc2c(c1)OC(=O)C1CCCCCCCCCCC21 (centres undefined)
IC50 (Steryl-sulfatase [8]): 0.001 µM

COc1cc(C2CC(=O)Oc3cc4c(cc32)OCO4)cc(OC)c1OC(C)=O (centres undefined)
IC50 (Aromatase [9]): 12.1 µM | logP [3]: 2.17

O=C1C=C(SCc2cc(=O)oc3cc(O)ccc23)C(=O)c2ccccc21
IC50 (MCF7 [4]): 11.2 µM | IC50 (MDA-MB-231 [5]): 9.5 µM | IC50 [6]: 18.1 µM

O=c1cc(C(F)(F)F)c2ccc(O)c(Cl)c2o1
IC50 (Casein kinase II): 0.4 µM | IC50 (A549): 20.2 µM

COc1cc(C2CC(=O)Oc3cc4c(c(OC)c32)OCO4)cc(OC)c1OC (centres undefined)
IC50 [1]: 0.11 µM

O=C(c1ccc(OCCN2CCCCC2)cc1)c1c(-c2ccc(O)cc2)sc2cc(O)ccc12 [RALOXIFENE]
IC50 [10]: > 40 µM | IC50 (MCF7 [11]): 15.4 µM | IC50 (MDA-MB-231 [12]): 18.5 µM

CC/C(=C(\c1ccccc1)c1ccc(OCCN(C)C)cc1)c1ccccc1 [TAMOXIFEN]
IC50 [10]: > 40 µM | IC50 (MCF7 [11]): 13.7 µM | IC50 (MDA-MB-231 [12]): 17.9 µM
